Legend:
[1] = molecular target: dopaminergic D3 receptor (Homo sapiens, UniProt P35462); experiment: Binding assay D3 (h), [3H]methyl-spiperone, CHO cells; set-up: expressed in transfected cells; host or cells: CHO cells; conditions: for inhibition at 1 µM: read-out: D3 [%]
Method in brief: (§1)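 Compounds were screened at 1×10^−6 M, and bound radioactivity was measured by scintillation counting. Specific binding equals total binding minus nonspecific binding obtained with an excess of unlabelled ligand.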

[2] = molecular target: T1, serotoninergic 5-HT1A receptor (Homo sapiens, UniProt P08908); experiment: Binding assay 5-HT1A (h), [3H]8-OH-DPAT, HEK-293 cells; set-up: expressed in transfected cells; host or cells: HEK-293 cells; conditions: for inhibition at 1 µM: read-out: 5-HT1A
T1 sequence (P08908 1-422): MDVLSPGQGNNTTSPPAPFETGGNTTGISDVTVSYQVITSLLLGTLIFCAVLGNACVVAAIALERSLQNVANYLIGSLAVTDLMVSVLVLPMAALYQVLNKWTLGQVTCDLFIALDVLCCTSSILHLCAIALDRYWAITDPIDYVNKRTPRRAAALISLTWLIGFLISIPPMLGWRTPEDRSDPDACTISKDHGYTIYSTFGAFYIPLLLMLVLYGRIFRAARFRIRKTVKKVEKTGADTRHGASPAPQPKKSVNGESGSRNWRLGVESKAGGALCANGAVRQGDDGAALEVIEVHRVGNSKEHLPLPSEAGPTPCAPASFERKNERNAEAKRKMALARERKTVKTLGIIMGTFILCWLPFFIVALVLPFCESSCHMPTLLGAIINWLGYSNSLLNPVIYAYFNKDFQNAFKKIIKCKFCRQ
Method in brief: as §1

[3] = molecular target: serotoninergic 5-HT2A receptor (Homo sapiens, UniProt P28223); experiment: Binding assay 5-HT2A (h), [3H]ketanserin, HEK-293 cells; set-up: expressed in transfected cells; host or cells: HEK-293 cells; conditions: for inhibition at 1 µM: read-out: 5-HT2A
serotoninergic 5-HT2A receptor, sequence (P28223 whole entry): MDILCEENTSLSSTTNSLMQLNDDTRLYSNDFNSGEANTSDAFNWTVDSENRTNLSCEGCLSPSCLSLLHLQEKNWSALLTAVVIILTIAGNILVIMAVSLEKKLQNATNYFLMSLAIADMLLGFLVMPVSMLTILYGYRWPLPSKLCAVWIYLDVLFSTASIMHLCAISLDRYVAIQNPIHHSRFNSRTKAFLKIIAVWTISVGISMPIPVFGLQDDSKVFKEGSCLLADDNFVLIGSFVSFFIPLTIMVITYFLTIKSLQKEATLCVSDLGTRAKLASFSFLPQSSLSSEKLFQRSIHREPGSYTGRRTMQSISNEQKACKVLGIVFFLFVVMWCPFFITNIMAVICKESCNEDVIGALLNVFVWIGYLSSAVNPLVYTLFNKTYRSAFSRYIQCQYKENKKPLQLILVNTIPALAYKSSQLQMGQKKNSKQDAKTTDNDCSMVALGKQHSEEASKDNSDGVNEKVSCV
Method in brief: as §1

[4] = molecular target: serotoninergic 5-HT7 receptor (Homo sapiens, UniProt P34969); experiment: Binding assay 5-HT7 (h), [3H]LSD, CHO cells; set-up: expressed in transfected cells; host or cells: CHO cells; conditions: for inhibition at 1 µM: read-out: 5-HT7
serotoninergic 5-HT7 receptor, sequence (P34969 whole entry): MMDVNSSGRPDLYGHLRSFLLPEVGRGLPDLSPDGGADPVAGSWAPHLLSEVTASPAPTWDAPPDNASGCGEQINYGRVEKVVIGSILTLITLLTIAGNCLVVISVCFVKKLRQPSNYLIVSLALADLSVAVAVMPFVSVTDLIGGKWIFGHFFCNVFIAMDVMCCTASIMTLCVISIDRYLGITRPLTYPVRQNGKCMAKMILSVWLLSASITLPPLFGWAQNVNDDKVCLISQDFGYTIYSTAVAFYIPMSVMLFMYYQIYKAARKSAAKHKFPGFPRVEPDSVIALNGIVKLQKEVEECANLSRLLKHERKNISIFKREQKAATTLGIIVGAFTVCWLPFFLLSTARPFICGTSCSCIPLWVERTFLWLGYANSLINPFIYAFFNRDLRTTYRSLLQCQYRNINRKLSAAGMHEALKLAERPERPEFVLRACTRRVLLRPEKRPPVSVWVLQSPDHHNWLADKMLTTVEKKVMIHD
Method in brief: as §1

[5] = molecular target: T2, serotonine transporter (SERT) receptor (Homo sapiens, UniProt P31645); experiment: Binding assay SERT (h), [3H]imipramine, CHO cells; conditions: for inhibition at 1 µM: read-out: SERT [%]
T2 construct: expressed in transfected cells; host or cells: CHO cells
T2 sequence (P31645 whole entry): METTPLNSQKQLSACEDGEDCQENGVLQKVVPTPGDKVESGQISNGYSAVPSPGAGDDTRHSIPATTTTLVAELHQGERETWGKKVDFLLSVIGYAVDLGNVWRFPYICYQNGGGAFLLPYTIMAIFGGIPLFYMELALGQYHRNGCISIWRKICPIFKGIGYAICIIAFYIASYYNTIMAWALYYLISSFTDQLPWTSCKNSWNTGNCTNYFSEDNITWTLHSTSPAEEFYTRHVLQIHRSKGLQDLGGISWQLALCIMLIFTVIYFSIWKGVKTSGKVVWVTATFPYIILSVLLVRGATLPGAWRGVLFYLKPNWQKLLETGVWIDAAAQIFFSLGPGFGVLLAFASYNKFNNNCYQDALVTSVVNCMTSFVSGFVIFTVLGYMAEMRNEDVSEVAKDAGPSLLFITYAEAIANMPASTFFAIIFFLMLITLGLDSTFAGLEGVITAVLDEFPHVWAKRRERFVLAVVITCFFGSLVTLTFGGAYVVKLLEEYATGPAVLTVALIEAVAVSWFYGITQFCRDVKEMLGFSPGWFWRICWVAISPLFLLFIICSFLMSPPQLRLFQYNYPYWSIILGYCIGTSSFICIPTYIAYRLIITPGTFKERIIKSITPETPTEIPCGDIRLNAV
Method in brief: as §1

[6] = system: adrenergic α1 receptor; experiment: Binding assay α1 (non-selective), [3H]prazosin, rat cerebral cortex; conditions: percent inhibition of control specific binding; compounds tested at 1×10^−6 M
Method in brief: as §1

[7] = molecular target: dopaminergic D2 receptor (Homo sapiens, UniProt P14416); experiment: Binding assay D2S (h), [3H]methyl-spiperone, HEK-293 cells; set-up: expressed in transfected cells; host or cells: HEK-293 cells; conditions: for inhibition at 1 µM: read-out: D2 [%]
dopaminergic D2 receptor, sequence (P14416 1-414 isoform P14416-2): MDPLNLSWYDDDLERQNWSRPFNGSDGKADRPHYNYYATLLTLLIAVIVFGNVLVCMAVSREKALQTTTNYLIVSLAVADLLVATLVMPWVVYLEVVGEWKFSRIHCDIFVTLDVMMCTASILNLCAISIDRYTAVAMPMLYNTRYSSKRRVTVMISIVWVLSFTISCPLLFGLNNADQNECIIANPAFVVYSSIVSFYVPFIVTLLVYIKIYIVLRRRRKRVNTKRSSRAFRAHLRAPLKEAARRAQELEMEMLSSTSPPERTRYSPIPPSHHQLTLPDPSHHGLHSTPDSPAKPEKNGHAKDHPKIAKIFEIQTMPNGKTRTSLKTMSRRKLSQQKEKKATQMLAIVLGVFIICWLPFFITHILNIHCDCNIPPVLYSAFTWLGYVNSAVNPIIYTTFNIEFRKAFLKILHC
Method in brief: as §1

[8] = molecular target: serotoninergic 5-HT6 receptor (Homo sapiens, UniProt P50406); experiment: Binding assay 5-HT6 (h), [3H]LSD, CHO cells; set-up: expressed in transfected cells; host or cells: CHO cells; conditions: for inhibition at 1 µM: read-out: 5-HT6
serotoninergic 5-HT6 receptor, sequence (P50406 whole entry): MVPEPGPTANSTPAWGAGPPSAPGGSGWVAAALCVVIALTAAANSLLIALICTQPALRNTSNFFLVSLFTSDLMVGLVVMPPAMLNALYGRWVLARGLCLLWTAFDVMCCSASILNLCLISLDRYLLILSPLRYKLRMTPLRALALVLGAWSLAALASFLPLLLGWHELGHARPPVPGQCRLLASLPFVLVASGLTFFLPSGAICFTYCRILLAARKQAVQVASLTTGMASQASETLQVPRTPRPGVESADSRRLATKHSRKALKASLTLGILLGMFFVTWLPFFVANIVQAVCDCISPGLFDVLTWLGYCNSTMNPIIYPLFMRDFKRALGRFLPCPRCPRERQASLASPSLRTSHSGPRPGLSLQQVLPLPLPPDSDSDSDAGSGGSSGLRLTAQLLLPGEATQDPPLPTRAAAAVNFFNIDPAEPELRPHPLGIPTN
Method in brief: as §1

[9] = percent inhibition of control specific binding, compounds tested at 1×10^−6 M

dopaminergic D3 receptor, sequence (P35462 whole entry): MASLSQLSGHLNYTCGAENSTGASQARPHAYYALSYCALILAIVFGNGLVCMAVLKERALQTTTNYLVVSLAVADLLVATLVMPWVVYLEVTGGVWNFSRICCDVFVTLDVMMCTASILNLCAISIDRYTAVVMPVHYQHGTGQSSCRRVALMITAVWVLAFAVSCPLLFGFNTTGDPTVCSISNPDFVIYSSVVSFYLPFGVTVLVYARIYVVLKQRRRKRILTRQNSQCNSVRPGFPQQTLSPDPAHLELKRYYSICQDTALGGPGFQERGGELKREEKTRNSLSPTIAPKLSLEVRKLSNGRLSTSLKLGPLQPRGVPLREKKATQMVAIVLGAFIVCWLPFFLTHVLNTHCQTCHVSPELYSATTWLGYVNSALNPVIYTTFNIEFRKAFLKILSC

SMILES | inhibition at 1 µM [1] | inhibition at 1 µM [2] | inhibition at 1 µM [3] | inhibition at 1 µM [4] | inhibition at 1 µM [5] | α1 [%] [6] | inhibition at 1 µM [7] | inhibition at 1 µM [8] | D3 [%] [1, 9] | 5-HT1A [2, 9] | 5-HT2A [3, 9] | 5-HT7 [4, 9] | SERT [%] [5, 9] | D2 [%] [7, 9] | 5-HT6 [8, 9]
O=S(=O)(NCCCCN1CCC(c2noc3cc(F)ccc23)CC1)c1ccc(Cl)c(Cl)c1 [Compound 297, 3,4-Dichloro-N-[4-[4-(6-fluoro-1,2-benzoxazol-3-yl)piperidin-1-yl]butyl]benzenesulphonamide] | 100% | 31% | 95% | 88% | 23% | 100% | 93% | 87% | – | – | – | – | – | – | –
O=S(=O)(NCCCCN1CCC(c2noc3cc(F)ccc23)CC1)c1ccc(Cl)cc1 [Compound 296, 4-Chloro-N-[4-[4-(6-fluoro-1,2-benzoxazol-3-yl)piperidin-1-yl]butyl]benzenesulphonamide] | 100% | 34% | 93% | 91% | 49% | 101% | 105% | 83% | – | – | – | – | – | – | –
O=S(=O)(NCCCCN1CCN(c2nsc3ccccc23)CC1)c1ccc(OC(F)(F)F)cc1 [Compound 236, N-[4-[4-(1,2-Benzothiazol-3-yl)piperazin-1-yl]butyl]-4-(trifluoromethoxy)benzenesulphonamide] | 85% | 76% | 89% | 91% | -15% | 92% | 99% | 67% | – | – | – | – | – | – | –
O=S(=O)(NCCCCN1CCC(c2noc3cc(F)ccc23)CC1)c1cccc(C(F)(F)F)c1 [Compound 303, N-[4-[4-(6-Fluoro-1,2-benzoxazol-3-yl)piperidin-1-yl]butyl]-3-(trifluoromethyl)-benzenesulphonamide] | 97% | 35% | 96% | 98% | 9% | 97% | 108% | 90% | – | – | – | – | – | – | –
O=S(=O)(NCCCCN1CCN(c2cccc3c2OCCO3)CC1)c1ccc2cn[nH]c2c1 [Compound 402, N-[4-[4-(2,3-Dihydro-1,4-benzodioxin-5-yl)piperazin-1-yl]butyl]-1H-indazole-6-sulphonamide] | 89% | 102% | 76% | 100% | 16% | 94% | 68% | 1% | – | – | – | – | – | – | –
O=S(=O)(NCCCCN1CCC(c2noc3cc(F)ccc23)CC1)c1ccc(C(F)(F)F)cc1 [Compound 302, N-[4-[4-(6-Fluoro-1,2-benzoxazol-3-yl)piperidin-1-yl]butyl]-4-(trifluoromethyl)benzenesulphonamide] | 99% | 50% | 95% | 101% | 19% | 100% | 90% | 72% | – | – | – | – | – | – | –
N#Cc1cccc(S(=O)(=O)NCCCCN2CCC(c3noc4cc(F)ccc34)CC2)c1 [Compound 306, 3-Cyano-N-[4-[4-(6-fluoro-1,2-benzoxazol-3-yl)piperidin-1-yl]butyl]benzenesulphonamide] | 99% | 44% | 97% | 89% | -10% | 99% | 106% | 81% | – | – | – | – | – | – | –
Cc1[nH]c2ccc(Cl)cc2c1C1=CCN(CCCNS(=O)(=O)c2cccc3ccccc23)CC1 [Compound 441, N-[3-[4-(5-Chloro-2-methyl-1H-indol-3-yl)-3,6-dihydro-2H-pyridin-1-yl]propyl]-naphthalene-1-sulphonamide] | 72% | 54% | 57% | 82% | 1% | 16% | 77% | 84% | – | – | – | – | – | – | –
CC(C)(C)c1ccc(S(=O)(=O)NCCCN2CCC(c3noc4cc(F)ccc34)CC2)cc1 [Compound 333, 4-tert-Butyl-N-[3-[4-(6-fluoro-1,2-benzoxazol-3-yl)piperidin-1-yl]propyl]benzenesulphonamide] | 89% | 42% | 99% | 92% | 5% | 106% | 92% | 93% | – | – | – | – | – | – | –
O=S(=O)(NCCCN1CCN(c2cccc3c2OCCO3)CC1)c1csc2ccccc12 [Compound 416, N-[3-[4-(2,3-Dihydro-1,4-benzodioxin-5-yl)piperazin-1-yl]propyl]benzothiophene-3-sulphonamide] | 56% | 101% | 58% | 99% | -4% | 81% | 59% | 55% | – | – | – | – | – | – | –
O=S(=O)(NCCCN1CCC(c2noc3cc(F)ccc23)CC1)c1cc2ccccc2o1 [Compound 349, N-[3-[4-(6-Fluoro-1,2-benzoxazol-3-yl)piperidin-1-yl]propyl]benzofuran-2-sulphonamide] | 100% | 49% | 108% | 91% | 0% | 98% | 93% | 87% | – | – | – | – | – | – | –
COc1cccc(S(=O)(=O)NCCCCN2CCN(c3cccc4c3OCCO4)CC2)c1 [Compound 394, N-[4-[4-(2,3-Dihydro-1,4-benzodioxin-5-yl)piperazin-1-yl]butyl]-3-methoxybenzenesulphonamide] | 86% | 95% | 71% | 98% | 12% | 92% | 72% | 18% | – | – | – | – | – | – | –
COc1ccc(S(=O)(=O)NCCCCN2CC=C(c3c[nH]c4ccc(Cl)cc34)CC2)cc1 [Compound 42, 4-Methoxy-N{4-[4-(5-chloro-1H-indol-3-yl)-3,6-dihydropyridin-1(2H)-yl]butyl}benzenesulphonamide] | – | – | – | – | – | 77% | – | – | 101% | 90% | 77% | 76% | 96% | 74% | 96%
COc1cccc(S(=O)(=O)NCCCN2CCN(c3nsc4ccccc34)CC2)c1 [Compound 255, N-[3-[4-(1,2-Benzothiazol-3-yl)piperazin-1-yl]propyl]-3-methoxybenzenesulphonamide] | 82% | 93% | 84% | 91% | 29% | 92% | 98% | 68% | – | – | – | – | – | – | –
N#Cc1cccc(S(=O)(=O)NCCCCN2CCN(c3cccc4[nH]ccc34)CC2)c1 [Compound 362, 3-Cyano-N-[4-[4-(1H-indol-4-yl)piperazin-1-yl]butyl]benzenesulphonamide] | 102% | 91% | 41% | 88% | 37% | 96% | 101% | 69% | – | – | – | – | – | – | –
O=S(=O)(NCCCN1CCC(c2noc3cc(F)ccc23)CC1)c1cccc(F)c1 [Compound 108, 3-Fluoro-N-[3-[4-(6-fluoro-1,2-benzoxazol-3-yl)piperidin-1-yl]propyl]benzenesulphonamide] | 98% | 48% | 88% | 90% | -9% | 100% | 106% | 86% | – | – | – | – | – | – | –
O=S(=O)(NCCCCN1CCN(c2cccc3[nH]ccc23)CC1)c1cccc(C(F)(F)F)c1 [Compound 361, N-[4-[4-(1H-Indol-4-yl)piperazin-1-yl]butyl]-3-(trifluoromethyl)benzenesulphonamide] | 98% | 95% | 49% | 86% | 6% | 98% | 99% | 70% | – | – | – | – | – | – | –

From patent publication US8822517B2, “Arylosulfonamides for the treatment of CNS diseases” (Adamed SP. Z O.O., priority 2010, dated 2014)
